Laboratory results as given in paper PMC11442653, “Treating ICB-resistant cancer by inhibiting PD-L1 via DHHC3 degradation induced by cell penetrating peptide-induced chimera conjugates” (Cell Death & Disease, 2024).

Experiments:
4T1 cells [1] = assay: 4T1 xenograft model in BALB/c mice, antitumor effect; format: in vivo, mouse
Method: Female BALB/c mice, aged 6–8 weeks and weighing approximately 20 g were procured from the Wuhan Experimental Animal Center, Hubei, China. In vivo studies assessing antitumor effects were performed according to the protocols of the Experimental Animal Welfare and Ethics Committee at Wuhan University. These studies complied with the National Research Council’s guidelines detailed in the “Guide for the Care and Use of Laboratory Animals.” Cells were harvested in an optimal growth phase with approximately 80% confluence, centrifuged to discard the supernatant, and 2 million 4T1 cells were resuspended in 125 µL of PBS. This cell suspension was subcutaneously injected into the dorsal flank of mice to initiate the tumor model. Tumor dimensions were regularly measured using calipers, and the volume was calculated using the following formula: (length × width²)/2. When the tumor volume was 80–100 mm³, the tumor-bearing mice were allocated for further in vivo investigation. […] The treatments were administered via tail vein injections on days 0, 2, 4, 6, 8, 10, and 12. Throughout the experiment, both the weight of the mice and tumor volume were recorded. On day 18, the mice were euthanized via cervical dislocation. The tumors were excised for measurement, photographic documentation, and weighing.

4T1 cells [2] = assay: Activity against ICB-resistant 4T1 tumors in vitro (PD-L1 blockers); format: cell-based, mouse
C33A cells [3] = assay: Colony formation assay with cisplatin; format: cell-based, human; settings: vs control; 4 h treatment, then 7 days
Method: The procedure commenced by counting and seeding cancer cells into a 6-well plate, with each well containing approximately 1000 cells. Following complete cell adhesion, various treatments were applied to each well, including a control PBS solution, cisplatin alone, and a combination of cisplatin and PCC16. This was followed by a 4-h incubation period. Subsequently, the initial culture medium was discarded, and the cells were incubated for additional 7 days in a fresh complete medium, which was renewed every 2–3 days. The cultivation process was halted on the formation of visible colonies detectable under a microscope, with each colony comprising approximately 60–80 cells. Double washing with PBS was conducted, followed by a 20-min fixation of the cells using a tissue cell fixative. After fixation, the cells were washed twice with PBS and stained with 0.1% crystal violet for 20 min. After rinsing the excess stain with deionized water, the plates were air-dried at ambient temperature. The colonies were photographed for documentation, and the cell colony counts in each treatment group was recorded.

C33A cells [4] = assay: TUNEL apoptosis assay with cisplatin; format: cell-based, human; settings: cisplatin vs control
Method: Cells were seeded in 6-well plates at a density between 30% and 50%. Following complete adhesion, various treatments were applied: PBS alone, cisplatin, or a combination of cisplatin and PCC16 for 4 h each. After incubation, the medium was replaced and the cells were rinsed with PBS. The cells were fixed with 4% paraformaldehyde for half an hour and washed again with PBS. To permeabilize the cells, PBS mixed with 0.3% Triton X-100 was added and the cells were incubated at room temperature for 5 min. A specific quantity of the terminal deoxynucleotidyl transferase dUTP nick end labeling (TUNEL) assay reagent was prepared and mixed. After washing the cells on coverslips with PBS twice, 50 µL of the TUNEL reagent was applied to each cell sample. These samples were then incubated at 37 °C in a dark environment for 60 min. The samples were then washed three times with PBS and stained with DAPI for 3–5 min, followed by washing with PBS twice. The final step involved mounting the samples for observation under a fluorescence microscope using an excitation wavelength range of 450–500 nm and an emission wavelength range of 515–565 nm to detect green fluorescence.

C33A cells [5] = assay: Ki67 proliferation assay with cisplatin; format: cell-based, human; settings: cisplatin vs control

Structure (SMILES) | effect on ICB-resistant tumors in vivo (4T1 cells [1]; 4T1) | average tumor weight, percent of control group (4T1 cells [1]; 4T1 xenograft, BALB/c mice, tail vein days 0, 2, 4, 6, 8, 10, 12, n = 4) | tumor weight and size (4T1 cells [1]; 4T1 xenograft, vs control, n = 4) | effect on ICB-resistant tumors in vitro (4T1 cells [2]) | number of C33A colonies (C33A cells [3]) | apoptosis (C33A cells [4]) | cell proliferation (Ki67) (C33A cells [5])
Cc1c(COc2ccc(CN3CCCCC3C(=O)O)cc2Br)cccc1-c1ccccc1 (stereo not shown) [BMS-8] | no significant effect on ICB-resistant tumors | 90.8% | slight decrease in weight and size | no significant effect on ICB-resistant tumors |  |  | 
N.N.[Cl][Pt][Cl] [cisplatin] |  |  |  |  | decreased | apoptosis increased | cell proliferation decreased
